According to patent US9937250B2, “Immunogenic tumor associated stromal cell antigen peptides and methods of their use” (University of Pittsburgh—Of the Commonwealth System of …, priority 2011, dated 2018):

Tests used:
[1] = system: MC38 tumor microenvironment; test: Fluorescence imaging of MC38 tumor sections after prophylactic vaccination; format: in vivo, HHD mice; details: day 14 tumors; p<0.05 vs. untreated or DC.IL12/no peptide
Description: Day 14 MC38 tumors were harvested from HHD mice that had been vaccinated as outlined in FIG. 9B with the indicated peptides (or control PBS or DC.IL12 alone=No peptide). In FIG. 10A, six-micron tissue sections were co-stained with anti-CD8 (green) and anti-NG2 (red) antibodies and imaged by fluorescence microscopy. Blue signal=nuclear counterstain using 4′,6-diamidino-2-phenylindole (DAPI). FIG. 10B provides a summary of the mean+/−SD number of CD8^+ cells per high-power field (HPF) in MC38 tumors isolated from control or vaccinated mice as depicted in FIG. 10A. In FIG. 10C, tissue sections were co-stained with anti-CD31 (green) and anti-NG2 (red) antibodies and imaged by fluorescence microscopy. Blue signal=nuclear counterstain using DAPI. In FIG. 10D, the mean+/−SD number of CD31^+ vessels per HPF of MC38 tumors in control or vaccinated mice are summarized Representative data is depicted from 1 of 3 independent experiments performed. *p<0.05 versus DC only or untreated control mice.
Fluorescence Imaging of Tumor Sections. Tumor tissue samples were prepared and 6 micron sections prepared as previously reported (Komita et al., Cancer Res., 68:8076-8084, 2008). The following Abs were used: (for T cell analyses), rabbit anti-mouse NG2 (Millipore, Bedford, Mass.) and alexa488-conjugated anti-CD4 or -CD8β antibodies or matching isotype controls (all from BD-Biosciences); (for vascular analyses), rat anti-mouse CD31 (BD-Biosciences) and rabbit anti-mouse NG2 (Millipore) Abs; (for TBVA), rat anti-mouse CD31 (BD-Biosciences) and guinea pig anti-mouse NG2 Abs, along with anti-TBVA as described in Example 1. Imaging was performed using an Olympus Fluoview 500 Confocal microscope (Olympus America, Center Valley, Pa.).
Protective vaccines incorporating TBVA peptides promote enhanced infiltration of the TME by CD8^+ T cells in association with an inhibition of tumor vascularity. MC38 tumor lesions from all cohorts of animals with evidence of disease on day 14 (post-tumor inoculation) were isolated and immunofluorescence microscopy on tumor sections was performed. […] In marked contrast, CD4^+ T cell infiltration in the TME was sparse and the data were indistinguishable when comparing control vs. vaccinated mice (FIG. 17). […] Correlative analyses indicated an association between the anti-tumor efficacy of vaccines and their ability to promote CD8^+ T cell infiltration and reduced vascularity in the TME (FIG. 16).

[2] = system: CD8+ T cells from HLA-A2+ normal donors or HLA-A2+ melanoma patients; test: In vitro sensitization of human CD8+ T cells with TASA peptide-pulsed autologous DC, IFN-γ ELISA against peptide-pulsed T2 cells; format: cell-based
Description: The indicated peptides were pulsed onto autologous DC and used to prime and boost CD8^+ T cells isolated from the peripheral blood of eight normal HLA-A2^+ donors or ten HLA-A2^+ patients with melanoma. Seven days after the primary in vitro sensitization (IVS) (melanoma patients) or a secondary IVS boost (normal donors), T cells were analyzed for their reactivity against HLA-A2^+ T2 cells pulsed with the relevant peptide vs. the negative control HIV-nef190-198 peptide. After 24 hours of co-culture, cell-free supernatants were analyzed for levels of secreted IFN-γ using a commercial ELISA. Data are reported in Bar and Whisker plots, with p-values provided for paired pre- versus post-IVS data from normal donors and patients. In addition, p<0.05 was detected for MEL-Post versus ND-Post for the following peptides: DLK1 (309), NG2 (770), NG2 (2238), PDGFRβ (891) and RGS5 (5).
In vitro assessment of human CD8^+ T cell responses against TASA- or TAA-derived peptides. Peripheral blood mononuclear cells (PBMC) were obtained by venipuncture or leukapheresis from HLA-A2^+ normal donors or HLA-A2^+ melanoma patients with written consent under IRB-approved protocols (Table 3). CD8^+ T cells were then isolated by MACS (Miltenyi Biotec, Auburn, Calif.) and either not stimulated or stimulated with autologous, TASA peptide-pulsed DC as previously described (Tatsumi et al., Cancer Res., 63:4481-4489, 2003). Normal donor T cells were stimulated with TASA peptide-pulsed DC twice on a weekly schedule, with responder T cells harvested for analysis of their specificity 5 days after the booster stimulation (i.e. day 12 of T cell-DC co-culture). Melanoma patient CD8^+ T cells were analyzed after a single round of stimulation with TASA peptide-pulsed, autologous DC (i.e. day 5 of T cell-DC co-culture) as indicated. For DC-based stimulations, DC were pulsed with an equimolar (1 μM each) pool of the TASA peptides (Table 4) for 4 h at 37° C. at 5% CO2 tension. These antigen-loaded DC were then used to stimulate autologous CD8^+ T cells at a T cell-to-DC ratio of 10:1 to generate a bulk population of responder T cells. T cells were maintained in IMDM media supplemented with 10% human AB serum, 100 U/ml penicillin, […], 10 mM L-glutamine and MEM non-essential amino acids (all reagents from Invitrogen, except human AB serum that was purchased from Sigma-Aldrich, St. Louis, Mo.). Responder CD8^+ T cells were analyzed for reactivity against control (HLA-A2^+) T2 cells or T2 cells pulsed with individual TASA or TAA peptides (1 μM for 4 h at 37° C.) at a CD8^+ T cell-to-T2 cell ratio of 5:1 for 24 h. Harvested cell-free supernatants were consequently assessed for hIFN-γ content using a specific ELISA (BD Biosciences, San Diego, Calif.) with a lower detection limit of 4.7 pg/ml.
CD8^+ T cells from HLA-A2^+ normal donors or HLA-A2^+ melanoma patients recognize TASA-derived peptides in vitro. To assess whether the TASA-derived peptides identified in the HHD tumor model were also capable of being recognized by human CD8^+ T cells, IVS was performed using T cells isolated from the peripheral blood of HLA-A2^+ donors or HLA-A2^+ patients with melanoma. DC were pulsed with peptides derived from a given TASA for 4 h at 37° C., then washed and used as stimulator cells for autologous CD8^+ T cells. In cases where more than one peptide existed for a given protein, DC were pulsed with an equimolar (10 μM) mixture of each peptide. Two rounds of IVS using TASA for normal donors and a single-round of IVS using TASA for melanoma patients was applied. HLA-A2^+ normal donors (FIG. 4; Tables 4, 5A and 5B) and melanoma patients (FIG. 4; Tables 4, 5A and 5B) were each capable of recognizing many of the TASA-derived peptides.

| Substance | Suppression in CD31+ vessel counts in the MC38 TME [1] | Specific CD8+ T cell Production of IFN-γ in Response to TASA ([2]; donor Mel1, melanoma patient) | Specific CD8+ T cell Production of IFN-γ in Response to TASA ([2]; donor Mel2, melanoma patient) | Specific CD8+ T cell Production of IFN-γ in Response to TASA ([2]; donor Mel3, melanoma patient) | Specific CD8+ T cell Production of IFN-γ in Response to TASA ([2]; donor Mel4, melanoma patient) | Specific CD8+ T cell Production of IFN-γ in Response to TASA ([2]; donor Mel6, melanoma patient) | Specific CD8+ T cell Production of IFN-γ in Response to TASA ([2]; donor Mel9, melanoma patient) | Specific CD8+ T cell Production of IFN-γ in Response to TASA ([2]; donor ND3, normal donor) | Specific CD8+ T cell Production of IFN-γ in Response to TASA ([2]; donor ND5, normal donor) | Specific CD8+ T Cell Response, HLA-A2+ Normal Donors (of 8) ([2]; number of responding donors of 8, response = IFN-γ >30 pg/ml and >2 fold HIV-nef control) | Specific CD8+ T Cell Response, HLA-A2+ Melanoma Patients (of 10) ([2]; number of responding patients of 10, response = IFN-γ >30 pg/ml and >2 fold HIV-nef control) | Specific CD8+ T cell Production of IFN-γ in Response to TASA ([2]; donor Mel8, melanoma patient) |
| --- | --- | --- | --- | --- | --- | --- | --- | --- | --- | --- | --- | --- |
| EphA2: EphA2-derived peptide 883-891 pulsed onto DC or DC.IL12 (TLADFDPRV; listed as Homo sapiens) | greatest degree of suppression in CD31^+ vessel counts | + (Human responses were designated as + if T cell reactivity against T2 cells presenting the indicated peptide (IFN-γ ELISA) was >30 pg/ml and more than 2 fold higher than reactivity versus T2 cells pulsed with the negative control HIV-nef190-198 peptide) | + (Human responses were designated as + if T cell reactivity against T2 cells presenting the indicated peptide (IFN-γ ELISA) was >30 pg/ml and more than 2 fold higher than reactivity versus T2 cells pulsed with the negative control HIV-nef190-198 peptide) | + (Human responses were designated as + if T cell reactivity against T2 cells presenting the indicated peptide (IFN-γ ELISA) was >30 pg/ml and more than 2 fold higher than reactivity versus T2 cells pulsed with the negative control HIV-nef190-198 peptide) | + (Human responses were designated as + if T cell reactivity against T2 cells presenting the indicated peptide (IFN-γ ELISA) was >30 pg/ml and more than 2 fold higher than reactivity versus T2 cells pulsed with the negative control HIV-nef190-198 peptide) | + (Human responses were designated as + if T cell reactivity against T2 cells presenting the indicated peptide (IFN-γ ELISA) was >30 pg/ml and more than 2 fold higher than reactivity versus T2 cells pulsed with the negative control HIV-nef190-198 peptide) | + (Human responses were designated as + if T cell reactivity against T2 cells presenting the indicated peptide (IFN-γ ELISA) was >30 pg/ml and more than 2 fold higher than reactivity versus T2 cells pulsed with the negative control HIV-nef190-198 peptide) | + (Human responses were designated as + if T cell reactivity against T2 cells presenting the indicated peptide (IFN-γ ELISA) was >30 pg/ml and more than 2 fold higher than reactivity versus T2 cells pulsed with the negative control HIV-nef190-198 peptide) | + (Human responses were designated as + if T cell reactivity against T2 cells presenting the indicated peptide (IFN-γ ELISA) was >30 pg/ml and more than 2 fold higher than reactivity versus T2 cells pulsed with the negative control HIV-nef190-198 peptide) | – | – | – |
| LAALPHSCL (listed as Homo sapiens) | – | – | – | – | – | – | – | – | – | 0 | 5 | – |
| RGS5: RGS5-derived peptide 5-13 pulsed onto DC or DC.IL12 (LAALPHSCL; listed as Homo sapiens) | greatest degree of suppression in CD31^+ vessel counts | + (Human responses were designated as + if T cell reactivity against T2 cells presenting the indicated peptide (IFN-γ ELISA) was >30 pg/ml and more than 2 fold higher than reactivity versus T2 cells pulsed with the negative control HIV-nef190-198 peptide) | + (Human responses were designated as + if T cell reactivity against T2 cells presenting the indicated peptide (IFN-γ ELISA) was >30 pg/ml and more than 2 fold higher than reactivity versus T2 cells pulsed with the negative control HIV-nef190-198 peptide) | – | + (Human responses were designated as + if T cell reactivity against T2 cells presenting the indicated peptide (IFN-γ ELISA) was >30 pg/ml and more than 2 fold higher than reactivity versus T2 cells pulsed with the negative control HIV-nef190-198 peptide) | + (Human responses were designated as + if T cell reactivity against T2 cells presenting the indicated peptide (IFN-γ ELISA) was >30 pg/ml and more than 2 fold higher than reactivity versus T2 cells pulsed with the negative control HIV-nef190-198 peptide) | – | – | – | – | – | + (Human responses were designated as + if T cell reactivity against T2 cells presenting the indicated peptide (IFN-γ ELISA) was >30 pg/ml and more than 2 fold higher than reactivity versus T2 cells pulsed with the negative control HIV-nef190-198 peptide) |
